Results reported in a melting point compilation (Tetko et al.; mined from patent text by program, amines drawn as free bases though some values may be those of a salt).

Row | Compound | melting point [°C]
1 | Sc1nccn1Cc1c(Cl)cccc1Cl | 242 to 243
2 | CCN1C(=O)C(C)(C)C(=O)N(C)c2cc(CCN(CCn3cc(C)c4oc(C)cc4c3=O)Cc3cc(C)nn3C)ccc21 | 168 to 170
3 | COCCOCCOCCOCCOc1ccc(N)cc1 | 42 to 44
4 | CCOP(=O)(OCC)c1ccccc1 | 256
5 | C1=C(/C=C/c2ccccc2)CCN(Cc2c[nH]c3ccccc23)C1 | 191 to 193
6 | Cc1cc(C)cc(Oc2[nH]c(=O)[nH]c(=O)c2C(C)C)c1 | 91 to 92
7 | COc1nc(C)c(C)nc1N(C)C(=O)N1CCN(c2cc(Cl)cc(Cl)c2)CC1 | 97 to 99
8 | Oc1ccc2c(c1)C=CC=CS2 | 165 to 166
9 | CC12CCC3c4ccc(O)cc4C(O)C(Sc4ccc(O)cc4)C3C1CCC2O (configuration not stated) | 220 to 225
10 | c1ccc2c(c1)OCC(c1ncc[nH]1)O2 (configuration not stated) | 225 to 227
11 | CCCCOc1ccc(S(=O)(=O)C2(C(=O)O)CCN(Cc3ccccc3)CC2)cc1 | 144
12 | O=C(O)c1cc(CC(C(=O)O)C(=O)O)c2ccccn2c1=O | > 250
13 | O=C1C=C(C2CCC(c3ccc(Cl)cc3)CC2)C(=O)c2ccccc21 (configuration not stated) | 147 to 149
14 | O=C(Nc1nc(-c2ccc(OC(F)F)cc2)cs1)C1CC1 | 202 to 203
15 | CC(=O)Nc1ccc(S(=O)(=O)Nc2nnc(S(N)(=O)=O)s2)cc1 | 280 to 281
16 | CCN(CC)CCOC(=O)c1cnc2ccn(-c3ccccc3)n2c1=O | 127 to 130
17 | COc1ccc(OC)c2c1CC[C@](O)(C(=O)O)C2 | 91 to 93
18 | CCNc1cc2c(cc1Cl)CCN(C)C[C@@H]2c1ccccc1 | 120 to 121
19 | COc1ccc(CN2C(=O)c3c(-c4ccccc4Cl)cc4c(c3C2=O)c2cc(OC)ccc2n4CC(O)CO)c(OC)c1 (configuration not stated) | 151 to 156
20 | O=C1c2cc(O)ccc2OCC1Cc1c[nH]c2ccccc12 (configuration not stated) | 188 to 190
21 | O=C(O)Cc1cc(Cl)ccc1OCCCc1ccccc1 | 95 to 96.5
22 | CN1CC2CN(C)CC(C1)C2OC(=O)c1ccccc1 (configuration not stated) | 100 to 102
23 | COCCC1CCN(c2ccc(C#N)c3ccccc23)CC1 | 95 to 96
24 | Cc1ccc2c3c(c(=O)oc2c1)CNCC3 | 128 to 130
25 | COc1ccc(CSCC(C(=O)O)C(F)(F)F)cc1 (configuration not stated) | 72 to 74
26 | Nc1nccc(-c2c[nH]c3nccc(OCc4ccccc4)c23)n1 | > 210

Row | Compound | melting point [°C]
27 | N#Cc1ccc(NC(=S)Nc2ccc(NNC=O)cc2)cc1 | 180 to 182
28 | CCOC(=CC=O)C1CCC2C3CCC4CC(O)CCC4(C)C3C(=O)CC12C (configuration not stated) | 175 to 178
29 | CC(Oc1cccc2c(Oc3ccc(C(F)(F)F)cc3F)cccc12)C(=O)O (configuration not stated) | 166
30 | C=C(C)C(=O)N(NC(=O)c1ccccc1)C(C)(C)C | 148 to 152
31 | c1ccc(-c2nc(CSc3nc4cccc5c4n3CCC5)cs2)cc1 | 116 to 118
32 | CN=C(N)Nc1nc(-c2cccc(C(=O)NCCN)c2)cs1 | 214 to 216
33 | Cc1cc(-c2nnc3c4ccccc4c(OCc4ccccn4)nn23)no1 | 234 to 236
34 | CC(C)(C)NS(=O)(=O)c1ccc(C(=O)c2ccc(F)cc2)cc1 | 160
35 | C=CCc1c(C(F)(F)F)[nH]n(-c2ccc(Br)c(Cl)c2)c1=O | 117
36 | COc1ccc(-c2nc(-c3cccn3Cc3ccccc3)[nH]c2-c2ccc(OC)cc2)cc1 | 183
37 | COC(=O)c1cccc2c([N+](=O)[O-])cccc12 | 105
38 | O=C(Cc1cccc(C(F)(F)F)c1)Nc1c(Br)cccc1Br | 169 to 170
39 | CCCc1c(C(=O)C(C)C)c2ccc(C(=O)O)cc2n1Cc1ccccc1I | 210
40 | O=C(O)c1cc([N+](=O)[O-])ccc1NCc1ccccc1 | 238 to 248
41 | Fc1cc2cc3n(c2cc1Cl)CCNC3 | 195 to 197
42 | CS(=O)(=O)Cc1cnc2ccccc2c1O | 280 to 282
43 | CCCN(CC1CC1)c1nc(C)nc2c1CCCC2(C)c1ccc(Cl)cc1 (configuration not stated) | 171 to 172
44 | CN(C)C=Nc1nc(OC(=O)c2ccccc2)ncc1F | 136 to 138
45 | COc1ccc(S(=O)(=O)c2nccn2C(C)C)cc1 | 84 to 86
46 | CCCCS(=O)(=O)c1ccc(C(=O)Nc2ccc3cc(CN4CCCC4)cnc3c2C)cc1 | 210
47 | CCOC(=O)COc1cc(F)ccc1C(=O)NCc1cccc([N+](=O)[O-])c1 | 78 to 80
48 | CCCc1nc2ccnn2c(O)c1Cc1ccc(-c2ccccc2C#N)cc1 | 251
49 | COCCCOc1cc(N(C)S(=O)(=O)c2ccccn2)c2[nH]c(C3=NCC(CN4CCS(=O)CC4)S3)cc2c1 (configuration not stated) | 176 to 177
50 | Cc1nc2n(c1CO)-c1ccccc1N(C)c1ccccc1-2 | 187 to 190
51 | C=C(C)Cn1c(=O)n(C)c(=O)c2c[nH]nc21 | 232 to 233
52 | O=c1c2cc(F)c(Cl)nc2n(-c2ccc(C(F)(F)F)cc2)c(=O)n1OCc1ccccc1 | 245 to 246

Row | Compound | melting point [°C]
53 | c1ccc(C(Cc2nc(COc3ccc(CCCn4ccnc4)cc3)co2)c2ccccc2)cc1 | 79 to 80
54 | O=C(NCC12CC3CC(CC(C3)C1)C2)c1cc(-c2cccnc2N2CCC[C@H]2C(=O)O)ccc1Cl | 121 to 125
55 | Nc1ccc(OCc2ccccn2)nn1 | 114 to 115
56 | Cc1cc([N+](=O)[O-])c2c(c1Cl)CC(CO)O2 (configuration not stated) | 112 to 115
57 | Cc1ccc(C(=O)NC(NC(=S)Nc2ccccc2)C(F)(F)F)cc1 (configuration not stated) | 205 to 206
58 | CC(C)(CO)NC(=O)c1nn(-c2ccc(F)cc2F)c2c1C1CCC2C1 (configuration not stated) | 142 to 144
59 | COc1ccc(N(C(=O)CCl)c2c(Cl)cccc2Cl)cc1 | 105 to 106
60 | Cc1cc(O)c(C)c2c1NCC2 | 155 to 158
61 | O=C1NC(=O)C2CCCCC12 (configuration not stated) | 132 to 136
62 | CS(=O)(=O)c1nc(Cl)cc(Nc2ccc(C(F)(F)F)cc2)n1 | 184 to 186
63 | O=C(NC1=NN(c2ccc(Cl)c(Cl)c2)CC1)c1ccc(Cl)cc1 | 177 to 178
64 | CC(C(=O)c1ccc(Cl)cc1)n1ncn(-c2ccc(N3CCN(Cc4ccccc4)CC3)cc2)c1=O (configuration not stated) | 164
65 | Cc1ccc(C(=O)c2cc(-c3ccc(S(C)(=O)=O)cc3)c(N3CCOCC3)s2)cc1 | 189
66 | c1ccc(C2CC(Cc3ccncc3)(Cc3ccncc3)c3ccccc32)cc1 (configuration not stated) | 210 to 225
67 | COC1C(O)C(CO)OC1n1cc(C(F)(F)F)c(=O)[nH]c1=O (configuration not stated) | 192 to 194
68 | CCCCCCCCC[C@]1(C)OO[C@@H]2C[C@H]1CC(=O)[C@@H]2C | 39
69 | Cc1cccc2[nH]c3c(c(C)nn3-c3ccccn3)c(=O)c12 | 183 to 186
70 | COC(=O)Cc1ccc2c(c1)C(OC)=Cc1ccccc1C2 | 72 to 73
71 | O=c1c2cnc3cc4c(cc3c2sn1CCc1ccccn1)OCO4 | 200 to 201
72 | CCOC(=O)c1ccc2c(c1)sc1ccc(C)cc12 | 83 to 87
73 | CCOCc1nc2c(N)nc3cccnc3c2n1C1(OC)CCCCC1 | 160 to 161
74 | CC(C)=CCOc1ccc2c(=O)c3ccccc3oc2c1C(=O)C=Cc1ccccc1 | 116 to 118
75 | NC(=O)c1cc2c(SC3CCCCC3)cncc2s1 | 205 to 207
76 | COc1cc(Cl)nc(Nc2ccccc2)n1 | 101 to 103
77 | CC(C)C(=O)Nc1ccoc1 | 120
78 | CCS(=O)(=O)N1CCN(C(=O)OC2CCC3(CO3)C(C3(C)OC3CC=C(C)C)C2OC)CC1 (configuration not stated) | 91 to 92

Row | Compound | melting point [°C]
79 | Cc1ccc(S(=O)(=O)OCC2Cc3c(Cl)cc4c(c3O2)CCC4)cc1 (configuration not stated) | 95 to 97
80 | CCCc1c(OCC2Cc3cc(CC(=O)OC)ccc3O2)ccc(C(C)=O)c1O (configuration not stated) | 77 to 78
81 | CC(C)OC(=O)N1CCC(c2ccc3nc(-c4ccc(S(C)(=O)=O)cc4F)oc3c2)CC1 | 170 to 174
82 | CCCC1=C(C(=O)OCC)C(c2cccc(F)c2F)c2c[nH]nc2N1 (configuration not stated) | 207
83 | Cn1c(=O)c(Oc2ccc(F)cc2F)cc2cnc(S(C)(=O)=O)nc21 | 177 to 178
84 | CS(=O)(=O)c1ccc(-c2cc(=O)n(CC3CC3)nc2-c2ccc(F)cc2)cc1 | 130 to 132
85 | CC(C)Cn1cnc2c(N)nc3cc(CCc4ccccc4)ccc3c21 | 172 to 173
86 | CC1(C)C(=O)N(c2ccc(C#N)c(Cl)c2)C(=O)N1CCCCCN1C(=O)N(c2ccc(C#N)c(Cl)c2)C(=O)C1(C)C | 166 to 167
87 | Cc1nc(NC(=O)c2cccc(F)c2)sc1C(=O)NCc1ccccc1 | 162 to 165
88 | COC(=O)CCCc1cc2nc(Cl)ccc2n1S(=O)(=O)c1ccc2ncsc2c1 | 55
89 | Cn1c(=O)[nH]c2cccc(I)c2c1=O | > 300
90 | COC(=O)c1ccc2cc(C(C)n3ccnc3)ccc2c1 (configuration not stated) | 103 to 106
91 | NC(=S)N(N)Cc1cccc(Cl)c1 | 153 to 158
92 | O=C(NN1CCNC1=O)c1c[nH]c2cc(O)c(O)cc2c1=O | > 300
93 | COC(=O)C1=C(C)Nc2nc(N3CCOCC3)nc(N3CCOCC3)c2C1c1ccccc1C#N (configuration not stated) | 221
94 | COc1cc(OC)nc(NC(=O)NS(=O)(=O)c2c3c(Cl)cccc3nn2C)n1 | 171 to 172
95 | Nc1ccc(C(O)c2ccccn2)c(OCC(F)(F)F)c1 (configuration not stated) | 97 to 99
96 | C=Cc1cc2ccc(-c3ccc(C(=O)OC)cc3)cc2cc1C12CC3CC(CC(C3)C1)C2 | 221 to 222
97 | Cn1c(C(=O)O)c(-c2ccc(F)cc2)c2nccnc2c1=O | 247 to 249
98 | Cn1cc(-c2ccc(C(=O)N3Cc4cccn4Cc4ccccc43)cn2)cn1 | 173 to 175
99 | CCOC(=O)c1cc2cc(O)ccc2n1C | 140 to 142
100 | CCOC(=O)C(=CNC1CC1)C(=O)c1cc(F)c(F)c(F)c1F | 63 to 65
101 | COC(=O)C(Cc1ccc([N+](=O)[O-])cc1)NC(=O)NCc1cccc(Oc2ccccc2)c1 (single isomer, unassigned; (+)) | 112 to 114
102 | CCOC(=O)c1c(Nc2ccccc2N)c(C)cn1C | 90
